Data: patent US20120258938A1, “Enzymatic Production or Chemical Synthesis and Uses for 5,7-Dienes and UVB Conversion Products Thereof” (priority 2008, published 2012)

Legend:
[1] = test system: HaCaT keratinocytes; test: [3H]-thymidine DNA synthesis in HaCaT keratinocytes; format: cell-based, human
Description: HaCaT keratinocytes were plated in 96-well plates at the density of 10,000 cells/well in DMEM (Cellgro, Herndon Va.) containing 5% charcoal treated fetal bovine serum (Hyclone, Logan, Utah), 1% antibiotic solution (PSA, Sigma, St. Louis, […].). Next day, media were changed and vehicle (ethanol) or secosteroids added. Cells were incubated with compounds for 48 hours. [^3H]-thymidine (Amersham Biosciences, Picataway, N.Y.) was added to the final concentration of 1 μCi/mL medium for last 12 hours of incubation. Media were then discarded, cells detached with trypsin and harvested on a glass fiber filter (Packard, Meriden, Calif.). Radioactivity was measured with a beta counter (Direct Beta-Counter Matrix 9600; Packard).
(§1) To measure DNA synthesis, keratinocytes, melanoma or prostate cancer cells were plated in 96-well plates. After overnight incubation tested compounds were added to the medium to achieve final concentrations 10^−7-10^−10 [M]. 100 μl of medium per well containing vitamin D3 compound was added to the cells. After 36 hours of incubation [3H]-thymidine (specific activity 88.0 Ci/mmol; Amersham Biosciences, Picataway, N.Y., USA) was added at 1 μCi/mL medium. After 12 hours, media were discarded, cells detached with trypsin and harvested on a glass fiber filter (Packard, Meriden, Calif., USA). 3H-radioactivity was measured with a beta counter (Direct Beta-Counter Matrix 9600; Packard).
HaCaT keratinocytes were plated out in 24-well plates, 50,000 cells/well. […] After 4 h media were discarded, cells washed with cold phosphate-buffered saline and incubated in 10% trichloroacetic acid for 30 min. Cells were washed again with phosphate-buffered saline, 100 μl 1.0 M NaOH was added to each well and plates incubated for 30 min at 30° C. The supernatant was collected and the ^3H-radioactivity measured by scintillation counting using a Direct Beta-Counter Matrix 9600 (Packard). The [^3H]-thymidine incorporation into DNA was measured separately for each well and the results entered into the calculation as the mean of 6 wells for each condition in a series of six experiments (n=36). Data were analyzed with GraphPad Prizm Version 4.0 (GraphPad Software Inc., San Diego, Calif., USA) using t tests. Differences were considered significant when p<0.05.

[2] = test system: HaCaT keratinocytes; format: cell-based, human
Description: The cells were seeded in 96-well plate in F10 medium. Following 48 to 96 h incubation cells were fixed with 10% trichloroacetic acid, washed and then incubated with 0.04% sulforhodamine B (in 1% acetic acid) for 30 min. Following second wash with 1% acetic acid, dye incorporated into the cells was solubilized in 10 mM Tris by shaking for 30 min and the absorbance was measured at 570 nm.
Cells are treated with the test compound, washed, fixed and stained with the Sulphorhodamine B dye (SRB). The incorporated dye is then liberated from the cells in a tris-base solution. An increase or decrease in the number of cells (total biomass) results in a concomitant change in the amount of dye incorporated by the cells in the culture. Cells were seeded in growth medium at 10,000 per well in 96-well plates. After 12 h of culture the medium was changed to 5% charcoal-treated serum and cells cultured for a further 47 h with serial dilutions of 1α,20-dihydroxycholecalciferol (diluted as for as for thymidine incorporation). […] was then added to a final concentration of 20% from a 50% stock and cells incubated for 1 h. Cells were stained with SRB 0.4% (Sigma), washed with 1% acetic acid and dried. Trsi-HCl was added and the absorbance measured at 565 nm. The absorbance of blank medium only, was also measured also at 690 nm.

[3] = test system: CYP24; test: Real-time RT PCR CYP24 mRNA in HaCaT keratinocytes; format: cell-based, human
Description: RNA was extracted as above. Reverse transcription was performed with Transcriptor First Strand cDNA Synthesis Kit (Roche, Nutley, N.J.). The primers (right: 5′-GCA GCT CGA CTG GAG TGA C-3′ (SEQ ID NO: 1) and left: 5′-CATCATGGCCATCAAAACAAT-3′(SEQ ID NO: 2)) and probe (cat. no. 04689135001) were designed with Universal Probe Library (Roche, Nutley, N.J.). Real-time PCR was performed using TaqMan PCR Master Mix at 50° C. for 2 min, 95° C. for 10 min and then 50 cycles (95° C. for 15 sec, 60° C. for 1 min). The data was collected on a Roche Light Cycler 480. The amounts of CYP24 were normalized using cyclophilin D as a housekeeping gene with comparative CT method.
The RNA from HaCaT keratinocytes treated with 1α,20-dihydroxycholecalciferol was isolated and RT PCR run as described in Example 1.

[4] = molecular target: bovine CYP11A1 (Bos taurus, UniProt P00189); test: Metabolism by CYP11A1 (P450scc) in phospholipid vesicles; format: in vitro ADME; settings: first 2 min of incubation
Sequence of bovine CYP11A1 (P00189 40-520): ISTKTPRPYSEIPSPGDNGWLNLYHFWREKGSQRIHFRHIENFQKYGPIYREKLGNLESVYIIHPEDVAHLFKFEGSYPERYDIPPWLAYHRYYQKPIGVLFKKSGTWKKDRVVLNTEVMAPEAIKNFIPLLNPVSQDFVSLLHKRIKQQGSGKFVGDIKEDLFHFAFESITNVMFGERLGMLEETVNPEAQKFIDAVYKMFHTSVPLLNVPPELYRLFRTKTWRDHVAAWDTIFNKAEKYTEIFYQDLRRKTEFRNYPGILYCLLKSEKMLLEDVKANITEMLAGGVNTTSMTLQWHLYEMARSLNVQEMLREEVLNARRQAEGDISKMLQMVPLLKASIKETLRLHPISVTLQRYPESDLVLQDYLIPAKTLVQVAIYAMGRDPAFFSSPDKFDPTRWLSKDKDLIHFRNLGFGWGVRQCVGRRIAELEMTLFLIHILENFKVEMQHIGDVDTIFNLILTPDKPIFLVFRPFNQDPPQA
Description: (§2) Adrenodoxin was added last to initiate the reaction.
(§3) Products and remaining substrate were extracted with dichloromethane, and measured by reverse phase HPLC as described before (12, 13b).

[5] = test system: neonatal human epidermal keratinocytes (HEKn); test: [3H]-thymidine proliferation assay in HEKn; format: cell-based; settings: 24 h, 0.1 nM
Description: Neonatal human epidermal keratinocytes (HEKn) were isolated form neonatal foreskin of African-American donors and grown in HKM (Lonza) medium supplemented with HKGF (Lonza) as described previously (8a,c). For the cell proliferation assay the cells from a third passage were seeded into 24-well plates (TPP, Switzerland) and grown until reaching ˜80% confluence. Secosteroids were dissolved in ethanol and then diluted in keratinocyte medium containing 0.1% BSA (Sigma). Cells were incubated for 24 h then 1 μCi/ml [^3H]-thymidine (Moravek Biochemicals Inc., Brea, Calif.) was added and cells were incubated for further 4 h. Excess of unbound thymidine was removed by washing cells with PBS. Cells were precipitated with 10% trichloroacetic acid (TCA) (Sigma) and then the precipitate dissolved with 1N NaOH. The solution was collected in vials and thymidine incorporation was determined in liquid scintillation counter (Beckman LS 6000, Santa Clara, Calif.).

[6] = molecular target: human CYP27B1 (Homo sapiens, UniProt O15528); test: Metabolism by CYP27B1 in phospholipid vesicles; format: in vitro ADME; settings: up to 10 min
Sequence of human CYP27B1 (O15528 whole entry): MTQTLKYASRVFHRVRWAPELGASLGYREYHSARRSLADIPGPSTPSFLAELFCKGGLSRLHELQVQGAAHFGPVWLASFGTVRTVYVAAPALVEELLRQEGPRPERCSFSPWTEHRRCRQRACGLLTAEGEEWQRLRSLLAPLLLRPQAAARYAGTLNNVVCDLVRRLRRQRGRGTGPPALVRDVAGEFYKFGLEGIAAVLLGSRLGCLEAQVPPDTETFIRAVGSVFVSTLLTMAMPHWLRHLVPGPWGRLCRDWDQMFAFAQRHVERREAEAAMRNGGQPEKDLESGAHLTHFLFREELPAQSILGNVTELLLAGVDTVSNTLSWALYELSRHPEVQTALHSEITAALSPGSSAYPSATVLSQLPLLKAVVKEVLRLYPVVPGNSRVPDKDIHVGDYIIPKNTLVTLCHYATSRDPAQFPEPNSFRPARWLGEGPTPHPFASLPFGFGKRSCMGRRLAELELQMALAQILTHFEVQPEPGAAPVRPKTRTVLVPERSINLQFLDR
Description: as §2, §3

[7] = test system: SKMEL-188 human melanoma cells; test: Proliferation (DNA synthesis) of SKMEL-188; format: cell-based; settings: SKMEL-188, 72 h
Description: as §1
(§4) HaCaT keratinocytes were an incubated for 48 h (FIG. 48A) or 72 h (FIG. 48B) in the presence of graded concentrations of 20(OH)D2 and/or 1,25(OH)2D3. […] Data are shown as mean±SD (n 3); *, p<0.05; **, p<0.01.

[8] = test system: involucrin; test: Involucrin protein fluorescence, normal human epidermal keratinocytes; format: cell-based; settings: 10^−7 M
Description: Cells were seeded in 6-well Lab-Tek II chamber slides (Nalge Nunc, Inc., Naperville, Ill.). Cells were pre-incubated in Epilife medium with HKGS overnight and then stimulated with 20-hydroxycholecalciferol in Epilife medium with HKGS for 24 hours and then fixed with 4% paraformaldehyde in PBS for 10 minutes. The cells were permeabilized with 0.2% Triton-X 100 in PBS for 5 minutes and blocked with 1% bovine serum albumine (BSA; in PBS) for 30 minutes. The cells were incubated consecutively with mouse anti-human involucrin antibody (Novocastra, Newcastle upon Tyne, UK) for 3 hours, anti-mouse-fluorescein isothiocyanate (FITC) conjugate (Novocastra, Newcastle upon Tyne, UK) for 1 hour in buffer containing 1% BSA in PBS. The slides were extensively washed with PBS between stainings and mounted with Vectashield mounting medium with propidium iodide (Vector Laboratories, Burlingame, Calif.). Slides not incubated with primary antibody were used as background controls. Slides were viewed with NIKON Eclipse TE300 microscope (Melville, N.Y.).
Data are shown as mean±SD (n=10-20). **, p<0.01. ***, p<0.001.

[9] = test system: neonatal epidermal melanocytes; test: Proliferation of neonatal epidermal melanocytes; format: cell-based; settings: 48 hours
[10] = test system: immortalized normal epidermal melanocytes (PIG1 line); test: Proliferation of PIG1 melanocytes; format: cell-based; settings: PIG1, 72 h
[11] = test system: involucrin; test: Real-time RT PCR involucrin mRNA, normal human epidermal keratinocytes; format: cell-based; settings: 10^−7 M, time dependant
Description: RNA was extracted using an Absolutely RNA RT-PCR Miniprep Kit (Stratagene, La Jolla, Calif.). Real time PCR and reverse transcription products were purchased from Applied Biosystems, Foster City, Calif. Reverse transcription was performed using Taqman® Reverse Transcription Reagents. The following PCR products were used: cytokeratin 14: Hs00265033_m1, involucrin: Hs00846307_s1, CYP27A1: Hs00168003_ml, CYP27B1: Hs00168017_ml, 18SrRNA: Hs99999901_s1. The reaction was performed with Taqman® Universal PCR Master Mix; data were collected on an ABI Prism 7700 and analyzed on Sequence Detector 1.9.1. Specific gene amounts were related to 18SrRNA by comparative CT method.

[12] = test system: AbC1 hamster melanoma cells; test: Proliferation (DNA synthesis) of AbC1; format: cell-based; settings: AbC1, 72 h
Description: as §1, §4

[13] = test system: human melanoma cells; test: Melanoma colony formation (crystal violet, 7 days); format: cell-based; settings: colonies over 0.2 mm and 0.5 mm
Source text: Inhibitory effects of 20(OH)D2 (FIGS. 47A-47B) in comparison to 1,25(OH)2D3 (FIGS. 47C-47D) on the ability of human melanoma cells to form colonies was examined.

[14] = substrate: C=C1CC[C@H](O)C/C1=C/C=C1\CCC[C@]2(C)[C@@H]([C@H](C)CCCC(C)C)CC[C@@H]12; test: cells, lysate or membranes named; settings: other: cyclodextrin; 37.0 °C

Molecule: C=C1C(=CC=C2CCCC3(C)C2CCC3C(C)(O)CCCC(C)C)CC(O)CC1O (stereo not drawn) [1α,20-dihydroxycholecalciferol, (5Z,7E)-9,10-secocholesta-5,7,10(19)-triene-1α,3β,20-triol]
- decrease in DNA synthesis ([1]; 0.1 nM): 30%
- decrease in DNA synthesis ([1]; 10 nM): 50%
- keratinocyte proliferation compared with 1α,25-dihydroxycholecalciferol ([1]; HaCaT, 48 h): inhibit keratinocyte proliferation more potently than the control compound
- number of viable cells (sulforhodamine B) [2]: caused a decrease in number of viable cells
- CYP24 mRNA level ([3]; 0.1 μM, 6 h): Modest stimulation
- CYP24 mRNA level ([3]; 0.1 μM, 24 h): the effect was lost by 24 h
- CYP24 mRNA level ([3]; 1 μM, 6 h and 24 h): markedly increased the Cyp 24 mRNA level

Molecule: C=C1CCC(O)CC1=CC=C1CCCC2(C)C1CCC2C(C)(O)CCCC(C)C (stereo not drawn) [20R(OH)D3, (5Z,7E)-9,10-secocholesta-5,7,10(19)-triene-3β,20R-diol]
- substrate consumed [4]: 58%
- thymidine incorporation into DNA [5]: slightly stimulated thymidine incorporation into DNA
- metabolism by CYP27B1 [6]: metabolized to a single product at comparable initial rates

Molecule: (5Z,7E,22E)-9,10-secoergosta-5,7,9(10),22-tetraene-3β,20-diol [20(OH)D2]
- proliferation [7]: Dose dependent inhibition of the proliferation
- involucrin protein expression [8]: increased expression of involucrin protein
- proliferation [9]: Dose dependent inhibition of the proliferation
- proliferation [10]: Dose dependent inhibition of the proliferation
- involucrin gene expression [11]: induced time dependant involucrin gene expression
- proliferation [12]: Dose dependent inhibition of the proliferation
- melanoma cell colony formation compared with 1,25(OH)2D3 [13]: Inhibits Melanoma Cell Colony Formation Better than 1.25 OH 2D3

B1: CYP27A1 (Homo sapiens) (protein)
chain: ALPSDKATGAPGAGPGVRRRQRSLEEIPRLGQLRFFFQLFVQGYALQLHQLQVLYKAKYGPMWMSYLGPQMHVNLASAPLLEQVMRQEGKYPVRNDMELWKEHRDQHDLTYGPFTTEGHHWYQLRQALNQRLLKPAEAALYTDAFNEVIDDFMTRLDQLRAESASGNQVSDMAQLFYYFALEAICYILFEKRIGCLQRSIPEDTVTFVRSIGLMFQNSLYATFLPKWTRPVLPFWKRYLDGWNAIFSFGKKLIDEKLEDMEAQLQAAGPDGIQVSGYLHFLLASGQLSPREAMGSLPELLMAGVDTTSNTLTWALYHLSKDPEIQEALHEEVVGVVPAGQVPQHKDFAHMPLLKAVLKETLRLYPVVPTNSRIIEKEIEVDGFLFPKNTQFVFCHYVVSRDPTAFSEPESFQPHRWLRNSQPATPRIQHPFGSVPFGYGVRACLGRRIAELEMQLLLARLIQKYKVVLAPETGELKSVARIVLVPNKKVGLQFLQRQC
- Km [14]: 10.7 ± 3.1 µM
